In USRE50082E1, “(5,6-dihydro)pyrimido[4,5-e]indolizines” (NETHERLANDS TRANSLATIONAL RESEARCH CENTER B.V., priority 2014, dated 2024):
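Also: luminescence read-out, percent growth versus compound-free DMSO wells as maximum growth, start-of-incubation signal separating growth from cell death, IC50 from logistic curve fit.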

The compounds below were run on MOLT-4 cancer cell line (assay: Cell proliferation assay, MOLT-4 cancer cell line (ATPlite)). Settings: Homo sapiens, MOLT-4; 72 hours incubation, ATPlite 1Step; read-out: IC50 MOLT-4 cell proliferation.
Type: cell-based
Protocol: 5 μL of compound solution was added and the plates were incubated for an additional 72 hours after which 25 μL of ATPlite 1Step™ (PerkinElmer, Groningen, The Netherlands) solution was added to each well. Luminescence was recorded on an Envision multimode reader. The cell signal at the start of incubation was recorded separately in order to distinguish between cell population growth and cell death. In addition, maximum growth was determined by incubation of a duplicate without compound in the presence of 0.4% DMSO. Percentage growth was used as the main y-axis signal. IC50s were fitted by non-linear regression using IDBS XLfit™5 using a 4-parameter logistic curve, yielding a maximum signal, minimum signal, hill-parameter and IC50.
For `CCc1cccc(CC)c1NC(=O)c1ccn2c1CCc1cnc(Nc3ccc(N4CCN(C)CC4)cc3C)nc1-2` [Example 67, N-(2,6-diethylphenyl)-2-[2-methyl-4-(4-methylpiperazin-1-yl)anilino]-5,6-dihydropyrimido[4,5-e]indolizine-7-carboxamide], the IC50 was under 0.05 µM.
`Cc1cccc(C)c1NC(=O)c1ccn2c1CCc1cnc(Nc3ccc(N4CCOCC4)nc3C)nc1-2` [Example 68, N-(2,6-dimethylphenyl)-2-[(2-methyl-6-morpholino-3-pyridyl)amino]-5,6-dihydropyrimido[4,5-e]indolizine-7-carboxamide] showed an IC50 of under 0.05 µM.
With `Cc1cccc(Br)c1NC(=O)c1ccn2c1CCc1cnc(Nc3ccc(N4CCOCC4)nc3C)nc1-2` [Example 70, N-(2-bromo-6-methyl-phenyl)-2-[(2-methyl-6-morpholino-3-pyridyl)amino]-5,6-dihydropyrimido[4,5-e]indolizine-7-carboxamide] the IC50 was under 0.05 µM.
In the case of `CCc1cccc(CC)c1NC(=O)c1ccn2c1ccc1cnc(Nc3ccc(N4CCN(C)CC4)cc3OC)nc12` [Example 71, N-(2,6-diethylphenyl)-2-[2-methoxy-4-(4-methylpiperazin-1-yl)anilino]pyrimido[4,5-e]indolizine-7-carboxamide], the IC50 is reported as under 0.05 µM.
`CCc1cccc(C)c1NC(=O)c1ccn2c1CCc1cnc(Nc3ccc(N4CCN(C)CC4)cc3OC)nc1-2` [Example 72, N-(2-ethyl-6-methyl-phenyl)-2-[2-methoxy-4-(4-methylpiperazin-1-yl)anilino]-5,6-dihydropyrimido[4,5-e]indolizine-7-carboxamide] was tested, and the IC50 was under 0.05 µM.
For `COc1cc(N2CCN(C)CC2)ccc1Nc1ncc2c(n1)-n1ccc(C(=O)Nc3c(C)cccc3Br)c1CC2` [Example 73, N-(2-bromo-6-methyl-phenyl)-2-[2-methoxy-4-(4-methylpiperazin-1-yl)anilino]-5,6-dihydropyrimido[4,5-e]indolizine-7-carboxamide], the IC50 was under 0.05 µM.
`COc1cc(N2CCNCC2)ccc1Nc1ncc2c(n1)-n1ccc(C(=O)Nc3c(C)cccc3Cl)c1CC2` [Example 75, N-(2-chloro-6-methyl-phenyl)-2-(2-methoxy-4-piperazin-1-yl-anilino)-5,6-dihydropyrimido[4,5-e]indolizine-7-carboxamide] showed an IC50 of under 0.05 µM.
`CCc1cccc(CC)c1NC(=O)c1ccn2c1CCc1cnc(Nc3ccc(N4CCNCC4)cc3OC)nc1-2` [Example 76, N-(2,6-diethylphenyl)-2-(2-methoxy-4-piperazin-1-yl-anilino)-5,6-dihydropyrimido[4,5-e]indolizine-7-carboxamide] was tested, and the IC50 was under 0.05 µM.
`CCc1cccc(CC)c1NC(=O)c1ccn2c1ccc1cnc(Nc3ccc(N4CCNCC4)cc3OC)nc12` [Example 77, N-(2,6-diethylphenyl)-2-(2-methoxy-4-piperazin-1-yl-anilino)pyrimido[4,5-e]indolizine-7-carboxamide] was tested, and the IC50 was 0.05 to 0.15 µM.
In the case of `Cc1cc(N2CCNCC2)ccc1Nc1ncc2c(n1)-n1ccc(C(=O)Nc3c(C)cccc3Cl)c1CC2` [Example 78, N-(2-chloro-6-methyl-phenyl)-2-(2-methyl-4-piperazin-1-yl-anilino)-5,6-dihydropyrimido[4,5-e]indolizine-7-carboxamide], the IC50 is reported as under 0.05 µM.
With `Cc1cc(N2CCNCC2)ccc1Nc1ncc2c(n1)-n1ccc(C(=O)Nc3c(Cl)cccc3Cl)c1CC2` [Example 79, N-(2,6-dichlorophenyl)-2-(2-methyl-4-piperazin-1-yl-anilino)-5,6-dihydropyrimido[4,5-e]indolizine-7-carboxamide] the IC50 was under 0.05 µM.
`CCc1cccc(CC)c1NC(=O)c1ccn2c1CCc1cnc(Nc3ccc(N4CCNCC4)cc3C)nc1-2` [Example 80, N-(2,6-diethylphenyl)-2-(2-methyl-4-piperazin-1-yl-anilino)-5,6-dihydropyrimido[4,5-e]indolizine-7-carboxamide] gave an IC50 of under 0.05 µM.
`Cc1cc(N2CCNCC2)ccc1Nc1ncc2c(n1)-n1ccc(C(=O)Nc3c(C)cccc3Br)c1CC2` [Example 81, N-(2-bromo-6-methyl-phenyl)-2-(2-methyl-4-piperazin-1-yl-anilino)-5,6-dihydropyrimido[4,5-e]indolizine-7-carboxamide] gave an IC50 of under 0.05 µM.
`CCc1cccc(C)c1NC(=O)c1ccn2c1CCc1cnc(Nc3ccc(N4CCNCC4)cc3C)nc1-2` [Example 82, N-(2-ethyl-6-methyl-phenyl)-2-(2-methyl-4-piperazin-1-yl-anilino)-5,6-dihydropyrimido[4,5-e]indolizine-7-carboxamide] gave an IC50 of under 0.05 µM.
Compound `CCc1cccc(CC)c1NC(=O)c1ccn2c1CCc1cnc(Nc3ccc(N4CCOCC4)cc3C)nc1-2` [Example 83, N-(2,6-diethylphenyl)-2-(2-methyl-4-morpholino-anilino)-5,6-dihydropyrimido[4,5-e]indolizine-7-carboxamide] has an IC50 of under 0.05 µM.
`COc1cc(OC2CCN(C)C2)ccc1Nc1ncc2c(n1)-n1ccc(C(=O)Nc3c(C)cccc3C)c1CC2` (stereo not shown) [Example 84, N-(2,6-dimethylphenyl)-2-[2-methoxy-4-(1-methylpyrrolidin-3-yl)oxy-anilino]-5,6-dihydropyrimido[4,5-e]indolizine-7-carboxamide] showed an IC50 of under 0.05 µM.
`Cc1cccc(Cl)c1NC(=O)c1ccn2c1CCc1cnc(Nc3ccc(N4CCN(C)CC4)cc3OC(F)F)nc1-2` [Example 86, N-(2-chloro-6-methyl-phenyl)-2-[2-(difluoromethoxy)-4-(4-methylpiperazin-1-yl)anilino]-5,6-dihydropyrimido[4,5-e]indolizine-7-carboxamide] gave an IC50 of under 0.05 µM.
Work on `CCc1nn(CCOC)c(CC)c1NC(=O)c1ccn2c1CCc1cnc(Nc3ccc(C(=O)N(C)CCCN(C)C)cc3OC)nc1-2` [Example 88, N-[3,5-diethyl-1-(2-methoxyethyl)pyrazol-4-yl]-2-[4-[3-(dimethylamino)propyl-methyl-carbamoyl]-2-methoxy-anilino]-5,6-dihydropyrimido[4,5-e]indolizine-7-carboxamide] yielded an IC50 of 0.05 to 0.15 µM.
Compound `COCCn1nc(C)c(NC(=O)c2ccn3c2CCc2cnc(Nc4ccc(OC5CNC5)cc4OC)nc2-3)c1C` [Example 91, 2-[4-(Azetidin-3-yloxy)-2-methoxy-anilino]-N-[1-(2-methoxyethyl)-3,5-dimethyl-pyrazol-4-yl]-5,6-dihydropyrimido[4,5-e]indolizine-7-carboxamide] has an IC50 of 0.05 to 0.15 µM.
With `CCc1n[nH]c(CC)c1NC(=O)c1ccn2c1CCc1cnc(Nc3ccc(OC4CNC4)cc3OC)nc1-2` [Example 92, 2-[4-(Azetidin-3-yloxy)-2-methoxy-anilino]-N-(3,5-diethyl-pyrazol-4-yl)-5,6-dihydropyrimido[4,5-e]indolizine-7-carboxamide] the IC50 was 0.05 to 0.15 µM.
In the case of `CCc1nn(CCOC)c(CC)c1NC(=O)c1ccn2c1CCc1cnc(Nc3ccc(OC4CNC4)cc3OC)nc1-2` [Example 93, 2-[4-(Azetidin-3-yloxy)-2-methoxy-anilino]-N-[3,5-diethyl-1-(2-methoxyethyl)pyrazol-4-yl]-5,6-dihydropyrimido[4,5-e]indolizine-7-carboxamide], the IC50 is reported as under 0.05 µM.
Work on `COCCn1nc(C)c(NC(=O)c2ccn3c2CCc2cnc(Nc4ccc(-c5c(C)nn(C)c5C)cc4OC)nc2-3)c1C` [Example 94, N-[1-(2-methoxyethyl)-3,5-dimethyl-pyrazol-4-yl]-2-[2-methoxy-4-(1,3,5-trimethylpyrazol-4-yl)anilino]-5,6-dihydropyrimido[4,5-e]indolizine-7-carboxamide] yielded an IC50 of under 0.05 µM.
